The test system of experiment [1] is CD95-mediated Ca2+ signaling pathway in Th17 cells. The experiment in a line: CD95-mediated Ca2+ response in Th17 cells. Conditions: non-toxic concentrations (1 μM), 1 h pre-treatment, cl-CD95L 100 ng/mL, FuraPE3-AM. In kind it is cell-based, human. How it is done: A. Activated PBLs were loaded with FuraPE3-AM (1 μM) and pre-treated for 1 h with non-toxic concentrations of indicated compounds. T-cells were then stimulated with thapsigargin (1 μM; arrow). Ratio values (R) were normalized to pre-stimulated values (R0) to yield R/R0 values. Data represent means±the SD. B. Th17 cells were sorted from healthy donors and loaded with FuraPE3-AM (1 μM). Th17 cells were pre-treated for 1 h with non-toxic concentrations of ritonavir or diflunisal (1 μM). T-cells were then stimulated with cl-CD95L (100 ng/mL; arrow). Ratio values (R) were normalized to pre-stimulated values (R0) to yield R/R0 values. Data represent means±the SD.
Human PBLs were sorted using flow cytometry cell sorting to isolate Th17 (A) according to their phenotype (CD3+CD4+CXCR5−CCR6+CXCR3−CD45RA−) and Tfh (B) (CD4+CXCR5+ICOS+PD−1+CD45RA−). Cells were pre-incubated with Indicated drugs (1 μM) for 1 h and then stimulated with 100 ng/mL of s-CD95L. [Ca2+]CYT was assessed in Fluo2 LR-AM (3 μM)-loaded cells. Data represent means±the SD of 3 independent experiments.
Peripheral blood mononuclear cells (PBMC) were isolated from buffy-coat by density gradient using lymphocyte separation medium (Eurobio, Les Ulis, France). PBMCs were then subjected to selection using a cocktail of antibody-coated magnetic beads: CCR6^+ CXCR3^−CD4^+ cells (Th17 cells) were sorted with Human Th17 Enrichment kit (STEMCELL Technologies, Grenoble, France). Cell sorting efficiency was evaluated by FACS.
T-cells were loaded with Fura-PE3-AM (1 μM) at room temperature for 30 min in Hank's Balanced Salt Solution (HBSS). After washing, the cells were incubated for 15 min in the absence of Fura-PE3-AM to complete de-esterification of the dye. Cells were placed in a temperature controlled chamber (37° C.) of an inverted epifluorescence microscope (Olympus IX70) equipped with an x40 UApo/340-1.15 W water-immersion objective (Olympus), and fluorescence micrograph images were captured at 510 nm and 12-bit resolution by a fast-scan camera (CoolSNAP fx Monochrome, Photometrics). To minimize UV light exposure, a 4×4 binning function was used. Fura-PE3 was alternately excited at 340 and 380 nm, and the ratios of the resulting images (emission filter at 520 nm) were produced at constant intervals (10 seconds). The Fura-PE3 ratio (Fratio 340/380) images were analyzed offline with Universal Imaging software, including Metafluor and Metamorph. Fratio reflects the intracellular Ca^2+ concentration changes. Each experiment was repeated at least 3 times, and the average of more than 20 single-cell traces per experiment was analyzed.

Another experiment relates to activated PBLs. In words: CD95-mediated cell migration / endothelial transmigration of activated PBLs (Boyden chamber). In kind it is cell-based, human. Conditions: result in words. How it is done: FIG. 3. Drugs inhibit CD95-mediated Ca′ response and cell migration. A. Activated PBLs were loaded with FuraPE3-AM (1 μM) and pre-treated for 1 h with non-toxic concentrations of indicated compounds. T-cells were then stimulated with cl-CD95L (100 ng/mL; arrow). Ratio values (R) were normalized to pre-stimulated values (R0) to yield R/R0 values. Data represent means±the SD. B. Left panel: using Boyden chamber assay, cell migration of parental H9 cells and their counterpart lacking CD95 (CD95-KO) was assessed. Right panel: activated PBLs were pre-incubated in the presence or absence of the indicated drugs for 1 hour using non-toxic concentration and the CD95-mediated cell migration was assessed by Boyden chambers. C. Th17 cells were sorted from blood of healthy donors (peripheral blood mononuclear cell). FACS analyses showing the efficiency of Th17 (CCR6^+ CXCR3^−) cell sorting from healthy donors PBMCs. D. Th17 cells were pre-incubated in the presence or absence of the indicated drugs for 1 hour using non-toxic concentration and cell migration was assessed by Boyden chambers. After membrane hydration of Boyden chambers (Millipore, Molsheim, France) containing 8 μm pore membranes, 10^5 cells were added to the top chamber. The bottom chamber was filled with low serum (1%)-containing medium in the presence or absence of cl-CD95L (100 ng/ml). Cells were incubated for 24 h. To quantify invasion, cells were fixed with methanol and stained with Giemsa. Stained cells were then removed from the top-side of the membrane using a cotton-tipped swab and five representative pictures for each insert were taken of the invading cells from the reverse side. For each experiment, invading cells were lysed and absorbance at 560 nm was measured. Membranes (3 μm pore size) of a Boyden chamber were hydrated in sterile D-PBS (Millipore, Molsheim, France). Thereafter, activated T-lymphocytes (10^6) were added to the top chamber on a confluent monolayer of HUVEC in a low serum (1%)-containing medium. The bottom chamber was filled with low serum (1%)-containing medium in presence or absence of 100 ng/ml of cl-CD95L. In experiments using human sera, 500 μl of serum from either healthy donors or SLE patients was added to the lower chamber. Cells were cultured for 24 h at 37° C. in a 5% CO2, humidified incubator. Transmigrated cells were counted in the lower reservoir by flow cytometry using a standard of 2.5×10^4 fluorescent beads (Flow-count, Beckman Coulter).

Consider `O=C(O)c1cc(-c2ccc(F)cc2F)ccc1O` [diflunisal, 5-(2,4-difluorophenyl)-2-hydroxybenzoic acid], for which, in experiment [1], the “effect on CD95-mediated Ca2+ signaling in Th17 cells” value is listed as “abrogated”. For the same compound, in the experiment on activated PBLs, the “effect on endothelial transmigration of PBLs” value is recorded as “inhibited”.

Regarding `CC(C)c1nc(CN(C)C(=O)N[C@H](C(=O)N[C@@H](Cc2ccccc2)C[C@H](O)[C@H](Cc2ccccc2)NC(=O)OCc2cncs2)C(C)C)cs1` [ritonavir, 1,3-thiazol-5-ylmethyl N-[(2S,3S,5S)-3-hydroxy-5-[[(2S)-3-methyl-2-[[methyl-[(2-propan-2-yl-1,3-thiazol-4-yl)methyl]carbamoyl]amino]butanoyl]amino]-1,6-diphenylhexan-2-yl]carbamate], the “effect on CD95-mediated Ca2+ signaling in Th17 cells” value in experiment [1] is recorded as “abrogated”. Moreover, the “effect on endothelial transmigration of PBLs” value in the experiment with activated PBLs is given as “inhibited”.

The values are drawn from patent US20190350907A1, “METHODS AND PHARMACEUTICAL COMPOSITIONS FOR REDUCING CD95- MEDIATED CELL MOTILITY” (INSERM (INSTITUT NATIONAL DE LA SANTÉ ET DE LA RECHERCHE …, priority 2017, published 2019).
